Source: ChEMBL document CHEMBL1145695, “Biologically active acylglycerides from the berries of saw-palmetto (Serenoa repens)” (J Nat Prod, 1997)
Values after ≈ are worked out from the molar mass of the structure shown.

Key:
A498 = test: Cytotoxicity against human A498 cells after 7 days by MTT assay; format: functional; settings: A498, 168 h, read-out: ED50 (the source's name)
PC-3 = test: Cytotoxicity against human PC3 cells after 7 days by MTT assay; format: functional; settings: PC-3, 168 h, read-out: ED50 (the source's name)
MIA PaCa-2 = test: Cytotoxicity against human MIAPaCa2 cells after 7 days by MTT assay; format: functional; settings: MIA PaCa-2, 168 h, read-out: ED50 (the source's name)
[1] = Toxicity against brine shrimp; format: organism-based; settings: artemia, in vivo

`COc1cccc2c1C(=O)c1c(O)c3c(c(O)c1C2=O)C[C@@](O)(C(=O)CO)C[C@@H]3O[C@H]1C[C@H](N)[C@H](O)[C@H](C)O1` [DOXORUBICIN] showed an EC50 (A498) of 0.0122 µg/mL (≈ 0.0224 µM), an EC50 (PC-3) of 0.0119 µg/mL (≈ 0.0219 µM) and an EC50 (MIA PaCa-2) of 0.0392 µg/mL (≈ 0.0721 µM).

In the case of `CCCCCCCCCCCCCC(=O)OCC(O)CO` (stereo unspecified), the LC50 [1] was 53.3 µg/mL (≈ 176 µM), the EC50 (A498) was 3.58 µg/mL (≈ 11.8 µM) and the EC50 (PC-3) was 8.84 µg/mL (≈ 29.2 µM). It also gave an EC50 (MIA PaCa-2) of 1.87 µg/mL (≈ 6.18 µM).

For `CCCCCCCCCCCC(=O)OCC(O)CO` (stereo unspecified) [GLYCEROL MONOLAURATE], the LC50 [1] was 79.2 µg/mL (≈ 289 µM), the EC50 (A498) was 3.77 µg/mL (≈ 13.7 µM) and the EC50 (PC-3) was 23.3 µg/mL (≈ 84.8 µM). For the same compound, the EC50 (MIA PaCa-2) was 2.33 µg/mL (≈ 8.49 µM).
